Where “and” joins values, the source holds several entries; their conditions need not be identical. Equal entries are not always repeated. Entries after “also recorded” stand apart in the source; their conditions may differ. Where two headings read alike, the source gives them in different places.
What was measured:
apoptotic HeLa cells [1] = test: Binding to single apoptotic HeLa cells, fluorescent microscopy; type: cell-based
Procedure: Chamber slides were pre-coated with 0.1% gelatin (G-1393 Sigma). Cells were seeded at a density of 8×10^4 cells/chamber, in a volume of 300 μl of culture medium. Apoptosis was induced by treatment with dopamine (RBI, MA, USA). Following 24 hours of incubation, the medium was replaced by a low serum-containing medium (2% FCS), with 500 μM of dopamine, for 18 hours. Non-treated cells that served as control, were kept in the growing medium without dopamine.
For evaluation of apoptosis, cells were stained with 1 mg/ml of Hoechst 33342 dye (Molecular probes). Twenty minutes later, cells were visualized under UV light microscopy and the relative number of apoptotic cells with condensed or fragmented chromatin was then evaluated and compared with non-apoptotic cells, showing a pale and diffuse staining. Photomicrographs were taken for documentation, but are not shown here. For staining with NST500 compounds, the tested cultures were grown as specified above and washed twice with TBS (Tris Buffered Saline; 10 mM Tris PH 8.0; 150 mM NaCl). […]
As a positive control, binding of Annexin V was performed using commercial kit (Genzyme, Mass.). Binding was evaluated with a fluorescent microscope (IX70; Olympus), using an NIBA filter (Narrow Interference Blue A from Olympus) and a ×400 magnification. […]

[2] = test system: Russell Viper Venom (RVV)-mediated clotting; test: RVV coagulation test in normal plasma; type: biochemical
Procedure: Reactions were started by mixing 100 μl of RVV reagent, and 100 μl of quality control plasma collected from normal individuals (84670-11, Instrumentation Laboratory, Italy). Clotting time was detected by visual inspection following mixing the reaction ingredients in a test tube, until the suspension could no longer be aspirated with a pastuer pipette. Clotting time was measured by two separate researchers.
100 μl of LA screen was then added and clotting time was detected as described.
The control clotting time, when no compound was added to normal plasma was 40 seconds.

apoptotic HeLa cells [3] = test: Modified APTT test with apoptotic HeLa cells as pro-coagulant surface; type: cell-based
Procedure: Apoptotic and control HeLa cells were prepared as described for the FACS analysis. Equal numbers of apoptotic or control non-treated cells (5×10^4) in a volume of […], were mixed with 100 μl of normal plasma, incubated for 1 min at 37° C. in a bath and then calcified by addition of 100 μl of 25 mM CaCl2, and clotting time was measured. Inhibition of the pro-coagulant activity of the apoptotic cells by NST500 compounds was tested following pre-incubation of apoptotic cells for 20 min. at room temperature with increased concentrations of the different NST 500 compounds.
The results can be seen in FIG. 4B.

apoptotic HeLa cells [4] = test system: apoptotic HeLa cells
Procedure: One of the final steps of both intrinsic and extrinsic path-ways of coagulation, is the generation of thrombin from prothrombin. Thrombin is the final protease generated in the sequence of coagulation reaction, and its activity entails conversion of fibrinogen to fibrin, thus forming the clot. Generation of thrombin on the pro-coagulant surface of apoptotic cells was assayed (according to Bombeli T. et al., 1997, Blood 89(7), 2429–2442), by determining its activity, using the chromogenic substrate S-2366 (from Chromogenix, Sweden). Samples of pro-coagulant cells (HeLa cells treated with 500 μM of DA for 18 hours) were used for the assay. Reaction mixture, in a plastic 1 ml cuvette, contained 100 μl of cells (1.5×10^5), 350 μl of HBS (150 mM NaCl, 10 mM Hepes pH 7), and 150 μl of normal control plasma, that was re-calcified with 300 μl of 25 mM CaCl2. The reaction was started by addition of the substrate S-2366 to a final concentration of 0.2 mM, and the kinetics of thrombin activity was determined by optical density at OD405. Data was collected and analyzed by the Swift kinetics software (Pharmacia).

thrombin = biological target: T1, thrombin (Homo sapiens, UniProt P00734); test: Direct effect on thrombin activity in vitro; type: biochemical; settings: commercially available thrombin and chromogenic substrate; not shown
T1 construct: purchased

cardiolipin = test system: cardiolipin
Text: The antiphospholipid antibody syndrom (APS) is a thrombophilic condition, characterized by a panel of antibodies that recognize anionic phospholipid-protein cofactor complexes. The antiphospholipid antibodies lupus anticoagulant and anticardiolipin, (present in high concentrations in SLE patients), are associated with several medical disorders including artherial and venous thrombosis, and recurrent pregnancy loss (Rand J H et al., 1998, Blood. 92, 1652–1660). […] Noncellular negatively charged phospholipid coated surface (cardiolipin) were chosen as a target for binding.
CL, (Diphosphatidylglycerol, c-1649, Sigma), prepared at 50 μg/ml in ethanol, was added to a 96 well plate (100 μl/well) using Immunolon 4 plates (Dynatech, Chantilly, Va.) and incubated for 16–20 hr for evaporation of ethanol. As control, wells were coated with ethanol only. The coated plates were washed 3 times with 100 μl of blocking buffer (PBS containing 0.3% gelatin (Sigma) and 1 mM EDTA) to block non specific binding. A 5 min incubation time was used between each wash. Normal plasma (Ilex, Italy, 84670-11) and plasma derived from SLE patients (either from Gradipore, Australia, LAHP-1, or from Biopool, Ventura, Calif.) were prepared according to the producer's instruction. The plasma was diluted 1/10 in the blocking buffer and was added to the CL and ethanol coated wells. […] Following 3 hr incubation, the plates were washed twice with PBS/BSA buffer (0.4% bovine serum albumine (BSA) in PBS). For detection of anti cardiolipin binding property of the tested plasma, the plates were incubated with a 1/10000 dilution of Peroxidase-conjugated affinity purified Goat anti-human IgG (Jackson Immunoresearch lab.) in PBS/BSA buffer for 1 hour. The plates were then washed 3 times with PBS/BSA buffer, and color reaction was developed by incubation with 100 ul of 0-phenylenedi-amine (OPD) dihydrochloride (Sigma p-7288) at a concentration of 0.4 mg/ml in 0.05 M phosphate citrate buffer, pH 5.0 supplemented with 4 ul of 30% hydrogen peroxide (Aldrich) for 10 ml mixture. To detect the level of NST500 compounds that were bound to CL, parallel wells were incubated with streptavidin conugated to OPD (SA-OPD, Jackson Immunoresearch lab.), that specifically recognize the biotinylated NST 500 compounds. The resulting colour changes were recorded at 405 nm using a Bio Tek Elx800 Eliza reader.

Myristate-KVSFFCKNKEKKC-K (SEQ ID NO:1) (biotin) [NST513]
labeling of apoptotic HeLa cells (apoptotic HeLa cells [1]): potent detector of apoptotic cells
labeling of control non-treated HeLa cells (apoptotic HeLa cells [1]): did not exhibit significant labeling
EC50 ([2]; RVV clotting time, read-out: EC50 (effective dose of 50%)): 3 to 5 µM
prolongation of clotting time (factor) ([2]; RVV test, normal plasma, 2.5–20 μM, control 40 seconds): 3.75 and 3.5
effect on clotting time of apoptotic cells (apoptotic HeLa cells [3]; 2.5–2.2 μM): marked and dose dependent inhibition of clotting time; also recorded: dose-dependent effect
increase of clotting time of apoptotic cells (factor) (apoptotic HeLa cells [3]; 2.5–2.2 μM): 3.2 times
clotting time of apoptotic cells (apoptotic HeLa cells [3]; apoptotic cells alone 50 seconds, control cells 80 seconds): 160 s
change of time needed for obtaining 50% of thrombin activity (factor) (apoptotic HeLa cells [4]; 5 μM): 1.5
change of time needed for obtaining 50% of thrombin activity (factor) (apoptotic HeLa cells [4]; 10 μM): 2.6
thrombin generation by apoptotic cells (apoptotic HeLa cells [4]; 10 μM): rate of thrombin generation was also inhibited
thrombin generation by apoptotic cells (apoptotic HeLa cells [4]; 25 μM): fully block
thrombin activity (reflecting thrombin generation), dose response (apoptotic HeLa cells [4]; 5–50 μM): effectively inhibited
thrombin generation by apoptotic cells (apoptotic HeLa cells [4]; 25–50μM): Total blockage of thrombin generation
direct effect on thrombin activity (thrombin): no direct inhibitory effect on thrombin activity
displacement of plasma derived from SLE patients from cardiolipin (cardiolipin; 1 μM): did not exhibit displacement
displacement of plasma derived from SLE patients from cardiolipin (cardiolipin; 10 μM): almost complete displacement
inhibition of binding of plasma derived from SLE patients to cardiolipin, dose response (cardiolipin; 1–10 μM): marked displacement of IgG
